From patent US20240009180A1, “MEDICINE FOR ALLEVIATING NEUROPATHIC PAIN” (Asahi Kasei Pharma Corporation, priority 2020, published 2024)
Where a name gives a salt, the structure may show the parent alone.

Key:
[1] = test system: amphetamine-induced hypersensitivity; conditions: 30 mg/kg; cited from earlier work
[2] = test system: neuropathy model rats; conditions: 30 mg/kg; cited from earlier work
[3] = test system: hypersensitivity to mechanical stimulation; conditions: in vivo; cited from earlier work
[4] = test system: animal models of bone cancer; conditions: cited from earlier work
[5] = Study for pharmacokinetics in blood after oral administration to rats; format: in vivo; conditions: male, Crl: CD (SD), rat, 30 mg/kg, oral 30 mg/kg once daily
Method: Rats (strain: Crl: CD (SD), male, 7 weeks old, with diet) were orally administered a methylcellulose suspension containing a P2X7 receptor antagonist compound (Compound 7 or Compound 10). Then blood was collected from rats 15 and 30 minutes, 1, 2, 4, 8 and 24 hours after the administration, and the concentration of the compound contained in the collected blood was measured. The dose of the compound per dose was 30 mg/kg, and the concentration of the compound in the suspension was 3 mg/mL. Administration was carried out once daily for 4 consecutive days.
The variations of a blood level of the compound with the passage of time were analyzed by a conventional method, and the pharmacokinetic parameters were estimated.

[6] = Study for assessing the central tissue distribution after oral administration to rats; format: in vivo, rat; conditions: for concentration at 1 h: male, Crl: CD (SD), plasma; for concentration at 1 h / Brain concentration / Spinal cord concentration: rat, oral 30 mg/kg, 1 hour after administration, mean value; for Distribution to blood and central tissue (in words): oral administration
Method: Rats (strain: Crl: CD (SD), male, 7 weeks old, with diet) were orally administered a methylcellulose suspension containing a P2X7 receptor antagonist compound (Compound 7 or Compound 10). Then central tissue was collected from rats 1 hour after its administration, and the compound distribution to the collected central tissue was assessed. The dose of the compound per dose was 30 mg/kg, and the concentration of the compound in the suspension was 3 mg/mL.
The study was carried out with n=2 or n=3.

[7] = test system: CCI model rats; assay: Rat chronic stenosis injury model (CCI or Bennett model), Randall-Selitto test; format: in vivo; conditions: 2, 10 or 50 mg/kg single oral dose 3 hours before measurement, 12 days after CCI surgery, vs solvent group
Method: In order to confirm the effect of Compound 7 on neuropathic pain, the effect of Compound 7 on hyperalgesia caused by mechanical stimulation occurring in CCI model rats was investigated. Compound 7 was orally administered to rats as an investigational drug, and the following studies were carried out.
As an experimental animal, a 7-week-old Sprague Dawley male rat (220.4 to 328.0 g) was used. The surgery was performed according to the procedure described in Bennett et al., Pain, 1988, 33, 87-107. Under isoflurane anesthesia, the right sciatic nerve was exposed via a blunt incision in the biceps femoris. Proximal to the bifurcation of the sciatic nerve, the nerve was freed of adhering tissue and 4 loose ligatures of 4-0 silk were tied around the nerve. Spacing between ligatures was approximately 1 mm. The muscle was sutured in layers, and the skin closed with silk suture.
The experimental animals were composed of four groups: a solvent administration group and each administration group of either 2, 10 or 50 mg/kg of Compound 7 (Compound 7-administration group). Compound 7 was orally administered to the Compound 7-administration group in a single dose 3 hours before the measurement test performed 12 days after CCI surgery. […]
The baseline threshold value was measured before CCI surgery, and then the pain threshold value was measured 12 days after surgery.

[8] = test system: SNL model rats; assay: Rat spinal nerve ligation model (SNL or Chung model), Dynamic Plantar Aesthesiometer test; format: in vivo; conditions: 50 mg/kg oral once a day for 7 days from the 15th day after SNL surgery, vs solvent group
Method: In order to confirm the effect of Compound 7 on neuropathic pain, the effect of Compound 7 on allodynia caused by mechanical stimulation occurring in SNL model rats was investigated. Compound 7 was orally administered to rats as a test drug, and the following tests were carried out.
As an experimental animal, a 6-week-old Sprague Dawley male rat (180 to 210 g) was used. The surgery was performed according to the procedure described in Chung et al., Pain, 1992, 50, 355-363. Under isoflurane anesthesia, a longitudinal incision was made in the dorsal skin from the thoracic spine to the sacral spine level. After incision and isolation of the paravertebral muscles, the L5 and L6 transverse processes were removed to expose the L5 and L6 spinal nerves. These nerves were ligated with 5-0 silk suture. Sham operated animals were treated identically with the exception that the nerves were not ligated. The muscle was sutured in layers, and the skin was closed with silk suture.
The experimental animals consisted of 6 groups: a sham operation group, a solvent administration group, and each administration group of either 0.4, 2, 10, or 50 mg/kg of Compound 7 (Compound 7-administration group). […]
The pain threshold for mechanical stimulation in the above rats, was measured using a Dynamic Plantar Aesthesiometer (manufactured by Ugo Basile).

[9] = Central tissue distribution in humans: exposure to the cerebrospinal fluid after repeated oral administration; format: in vivo, human; conditions: healthy subjects
[10] = test system: neuropathic pain in rats; conditions: cited from earlier work

O=C(NCC1(N2CCN(c3ccccc3)CC2)CCOCC1)c1cccnc1Sc1ccccc1 [JNJ-47965567]
Effect on amphetamine-induced hypersensitivity [1]: alleviated the amphetamine-induced hypersensitivity | Efficacy in neuropathy model rats [2]: not a large but a significant efficacy

Clc1cccc(-c2nnnn2Cc2cccnc2)c1Cl [A438079 hydrochloride]
Effect on development of hypersensitivity to mechanical stimulation [3]: suppressed the development of hypersensitivity to mechanical stimulation

Clc1cccc(-c2nnnn2Cc2cccnc2)c1Cl [Compound A-438079]
Effect on bone cancer-related behavior [4]: could not alleviate bone cancer-related behavior

O=C(NCc1ccc(Cl)cc1Cl)[C@]1(F)CC[C@@](O)(CO)c2ncccc21 [Compound 10, (5S,8S)-N-(2,4-dichlorobenzyl)-5-fluoro-8-hydroxy-8-(hydroxymethyl)-5,6,7,8-tetrahydroquinoline-5-carboxamide]
AUC(0-t) ([5]; Day 1 of administration): 48.8 µM·h | Cmax ([5]; Day 1 of administration): 9.54 µM | Tmax ([5]; Day 1 of administration): 20 min | AUC(0-t) ([5]; Day 4 of administration): 45.6 µM·h | Cmax ([5]; Day 4 of administration): 8.27 µM | Tmax ([5]; Day 4 of administration): 15 min | concentration at 1 h [6]: 5.08 µM | Distribution to blood and central tissue (in words) [6]: sufficient distribution to blood, brain and spinal cord | Brain concentration [6]: 9.22 nmol/g tissue | Spinal cord concentration [6]: 11.4 nmol/g tissue

O=C(NCc1ccc(F)cc1Cl)[C@]1(F)CC[C@@](O)(CO)c2ncccc21 [Compound 7, (5S,8S)-N-(2-chloro-4-fluorobenzyl)-5-fluoro-8-hydroxy-8-(hydroxymethyl)-5,6,7,8-tetrahydroquinoline-5-carboxamide]
AUC(0-t) ([5]; Day 1 of administration): 80.1 µM·h | Cmax ([5]; Day 1 of administration): 18.5 µM | Tmax ([5]; Day 1 of administration): 20 min | AUC(0-t) ([5]; Day 4 of administration): 77.4 µM·h | Cmax ([5]; Day 4 of administration): 14.7 µM | Tmax ([5]; Day 4 of administration): 35 min | concentration at 1 h [6]: 19.3 µM | Distribution to blood and central tissue (in words) [6]: sufficient distribution to blood, brain and spinal cord | Brain concentration [6]: 23.6 nmol/g tissue | Spinal cord concentration [6]: 27.7 nmol/g tissue | Pain threshold value (paw pressure) lowered by CCI surgery [7]: significantly increased in all the administration groups | Pain threshold value for mechanical stimulation lowered by SNL surgery [8]: significantly increased | Exposure to the cerebrospinal fluid [9]: Sufficient Exposure

COc1ccc(CC(=O)NC(NC(=NC#N)Nc2cccc3ncccc23)C(C)(C)C)cc1OC (stereo not shown) [Compound A-740003, N-(1-{[(cyanoimo) (5-quinolinylamino)methyl]amino}-2,2-dimethylpropyl)-2-(3,4-dimethoxyphenyl)acetamide]
Effect on neuropathic pain [10]: reduced neuropathic pain in rats in a dose-dependent manner
